# Laboratory results published in patent publication EP1247803A2, “Indolinone compounds suitable for modulation of protein kinases” (Sugen, Inc., priority 1996, dated 1998).
# Biological target: T1, FLK-1 receptor (Mus musculus, UniProt P35918)
# T1 construct: expressed in transfected cells; host or cells: NIH3T3 C7#3
# Test: FLK-1 ELISA (kinase activity of the FLK-1 receptor in FLK-1/NIH3T3 cells, VEGF stimulated)
# Type: cell-based
# Procedure, shortened: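 FLK-1-expressing NIH3T3 C7#3 cells, starved overnight in 0.1% FBS medium, were treated with compounds at a 1:200 final dilution (0.5% DMSO) for 2 h at 37 °C, with VEGF stimulation. FLK-1 kinase activity was read by ELISA on anti-rabbit IgG plates using affinity-purified anti-FLK-1 antiserum.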
# T1 sequence (P35918 20-1345): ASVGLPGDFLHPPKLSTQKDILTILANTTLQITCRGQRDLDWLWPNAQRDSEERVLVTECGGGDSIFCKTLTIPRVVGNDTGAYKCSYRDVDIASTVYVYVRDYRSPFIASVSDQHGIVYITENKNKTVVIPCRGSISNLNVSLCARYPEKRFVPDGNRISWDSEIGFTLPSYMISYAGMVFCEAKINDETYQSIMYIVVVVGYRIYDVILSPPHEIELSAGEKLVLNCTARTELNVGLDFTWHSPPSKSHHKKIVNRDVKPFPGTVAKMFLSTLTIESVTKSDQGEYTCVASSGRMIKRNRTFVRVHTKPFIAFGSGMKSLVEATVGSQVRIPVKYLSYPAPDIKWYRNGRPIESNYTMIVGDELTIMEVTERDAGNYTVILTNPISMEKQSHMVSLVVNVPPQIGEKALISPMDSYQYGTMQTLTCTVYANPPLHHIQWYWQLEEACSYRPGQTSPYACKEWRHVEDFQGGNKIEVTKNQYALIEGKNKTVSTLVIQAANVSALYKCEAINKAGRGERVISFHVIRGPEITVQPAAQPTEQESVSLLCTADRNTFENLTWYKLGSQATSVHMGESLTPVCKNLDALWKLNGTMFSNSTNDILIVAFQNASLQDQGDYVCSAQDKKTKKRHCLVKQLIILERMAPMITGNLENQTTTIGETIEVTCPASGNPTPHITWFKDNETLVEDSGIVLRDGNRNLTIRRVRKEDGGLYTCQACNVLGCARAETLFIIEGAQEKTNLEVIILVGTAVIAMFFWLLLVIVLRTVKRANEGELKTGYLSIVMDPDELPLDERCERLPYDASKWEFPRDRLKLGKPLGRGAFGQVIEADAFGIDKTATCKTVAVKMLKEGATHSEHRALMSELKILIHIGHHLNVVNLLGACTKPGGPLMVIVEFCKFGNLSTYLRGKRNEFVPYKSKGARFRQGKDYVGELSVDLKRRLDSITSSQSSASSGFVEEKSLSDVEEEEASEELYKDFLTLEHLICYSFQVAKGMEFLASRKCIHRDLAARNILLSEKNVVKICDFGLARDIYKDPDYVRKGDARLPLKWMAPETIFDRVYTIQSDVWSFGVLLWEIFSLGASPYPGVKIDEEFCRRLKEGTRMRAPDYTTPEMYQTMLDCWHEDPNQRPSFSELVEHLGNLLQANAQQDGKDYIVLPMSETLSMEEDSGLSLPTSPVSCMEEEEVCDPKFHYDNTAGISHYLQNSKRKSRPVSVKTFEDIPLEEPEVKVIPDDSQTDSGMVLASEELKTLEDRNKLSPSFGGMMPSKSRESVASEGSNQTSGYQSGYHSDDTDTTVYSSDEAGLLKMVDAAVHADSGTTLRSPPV
row,SMILES,Fik Kinase %Inhibition [%]
1,CNS(=O)(=O)c1ccc2c(c1)C(=Cc1ccc(OC)c(OC)c1)C(=O)N2 [10720/D04],15.6
2,Cc1c(Br)ccc2c1C(=Cc1c[nH]c3ccccc13)C(=O)N2 [10717/C06],7.6
3,Cn1cc(Cl)c(C=C2C(=O)Nc3c(Br)cc(Br)cc32)n1 [10721/A03],11.4
4,O=C1Nc2ccc(S(=O)(=O)N3CCOCC3)cc2C1=Cc1ccccc1 [10720/F06],11.9
5,COc1cc(O)ccc1C=C1C(=O)Nc2ccc(CCCl)cc21 [10720/G03],2.6
6,Cc1c(Br)ccc2c1C(=Cc1ccc[nH]1)C(=O)N2 [10717/C09],77.1
7,O=C1Nc2ccc(I)cc2C1=Cc1cc2c([nH]1)CCCC2 [10721/B05],45.9
8,O=C1Nc2ccc(CCCl)cc2C1=Cc1ccccc1O [10720/G05],-2.9
9,Cc1c(Br)ccc2c1C(=Cc1ccc(Cl)s1)C(=O)N2 [10721/C07],10.9
10,Cc1cc(O)cc(O)c1C=C1C(=O)Nc2ccc(CCCl)cc21 [10720/G08],-17.9
11,CSc1ccc(C=C2C(=O)Nc3ccc(CCCl)cc32)s1 [10720/G07],5.1
12,Cc1c(Br)ccc2c1C(=Cc1cc3c([nH]1)CCCC3)C(=O)N2 [10721/C05],56.4
13,Cc1c(Br)ccc2c1C(=Cc1ccc(Br)cc1)C(=O)N2 [10717/C08],7.0
14,Cc1cc(O)cc(O)c1C=C1C(=O)Nc2ccc(S(=O)(=O)N3CCOCC3)cc21 [10720/F08],-4.1
15,O=C1Nc2ccc(S(=O)(=O)Nc3ccc(C(F)(F)F)cc3)cc2C1=Cc1c(F)cc(F)cc1F [10720/E02],5.7
16,Cc1c(Br)ccc2c1C(=Cc1nc3ccccc3n1C)C(=O)N2 [10721/C02],9.7
17,CNS(=O)(=O)c1ccc2c(c1)C(=Cc1ccccc1)C(=O)N2 [10720/D06],10.1
18,CC(C)(C)c1cc(C=C2C(=O)Nc3c(Br)cc(Br)cc32)ccc1O [10721/A09],10.9
19,COc1ccc(O)c(C=C2C(=O)Nc3ccc(CCCl)cc32)c1 [10720/G10],-36.6
20,CNS(=O)(=O)c1ccc2c(c1)C(=Cc1[nH]c(C)cc1C)C(=O)N2 [10721/D08],3.9
21,COc1ccc(C=C2C(=O)Nc3ccc(S(=O)(=O)Nc4ccc(C(F)(F)F)cc4)cc32)cc1OC [10720/E04],18.4
22,CSc1ccc(C=C2C(=O)Nc3ccc(S(=O)(=O)Nc4ccc(C(F)(F)F)cc4)cc32)s1 [10720/E07],18.8
23,COc1ccc(C=C2C(=O)Nc3ccc(S(=O)(=O)N4CCOCC4)cc32)cc1OC [10720/F04],10.6
24,CCOc1ccccc1C=C1C(=O)Nc2c(Br)cc(Br)cc21 [10717/A02],0.1
25,CC(C)(C)c1cc(C=C2C(=O)Nc3c(Br)cc(Br)cc32)cc(Br)c1O [10721/A10],5.2
26,CNS(=O)(=O)c1ccc2c(c1)C(=Cc1c(C)cc(O)cc1O)C(=O)N2 [10720/D08],3.3
27,O=C1Nc2c(Br)cc(Br)cc2C1=Cc1cc2c([nH]1)CCCC2 [10721/A05],12.5

row,SMILES,Fik Kinase %Inhibition [%]
1,CC(C)(C)c1cc(C=C2C(=O)Nc3ccc(I)cc32)ccc1O [10721/B09],9.0
2,Cc1ccc(C=C2C(=O)Nc3ccc(Br)c(C)c32)s1 [10717/C07],1.6
3,CCOc1cc(C=C2C(=O)Nc3ccc(S(=O)(=O)N4CCOCC4)cc32)ccc1O [10720/F09],5.9
4,O=C1Nc2ccc(S(=O)(=O)N3CCOCC3)cc2C1=Cc1c(F)cc(F)cc1F [10720/F02],9.1
5,CCOc1cc(C=C2C(=O)Nc3ccc(CCCl)cc32)ccc1O [10720/G09],2.1
6,Cn1c(C=C2C(=O)Nc3c(Br)cc(Br)cc32)nc2ccccc21 [10721/A02],10.6
7,O=C1Nc2ccc(S(=O)(=O)N3CCOCC3)cc2C1=Cc1ccccc1O [10720/F05],-3.6
8,O=C1Nc2ccc(CCCl)cc2C1=Cc1c(F)cc(F)cc1F [10720/G02],5.0
9,O=C1Nc2ccc(CCCl)cc2C1=Cc1ccccc1 [10720/G06],-3.4
10,O=C1Nc2ccc(S(=O)(=O)Nc3ccc(C(F)(F)F)cc3)cc2C1=Cc1ccccc1 [10720/E06],25.5
11,Cc1c(Br)ccc2c1C(=Cc1nn(C)cc1Cl)C(=O)N2 [10721/C03],16.5
12,Cc1c(Br)ccc2c1C(=Cc1cccn1C)C(=O)N2 [10717/C04],-0.8
13,Cc1cc(C)c(C=C2C(=O)Nc3c(Br)cc(Br)cc32)[nH]1 [10721/A08],4.8
14,CNS(=O)(=O)c1ccc2c(c1)C(=Cc1nn(C)cc1Cl)C(=O)N2 [10721/D03],17.8
15,O=C1Nc2ccc(S(=O)(=O)Nc3ccc(C(F)(F)F)cc3)cc2C1=Cc1ccccc1O [10720/E05],-13.8
16,Cc1cc(O)cc(O)c1C=C1C(=O)Nc2ccc(S(=O)(=O)Nc3ccc(C(F)(F)F)cc3)cc21 [10720/E08],2.5
17,CC(C)(C)c1cc(C=C2C(=O)Nc3ccc(I)cc32)cc(C(C)(C)C)c1O [10721/B11],-2.1
18,O=C1Nc2ccc(S(=O)(=O)N3CCOCC3)cc2C1=Cc1ncc[nH]1 [10720/F11],5.0
19,O=C1Nc2ccc(CCCl)cc2C1=Cc1ncc[nH]1 [10720/G11],-18.0
20,CCOc1cc(C=C2C(=O)Nc3ccc(S(=O)(=O)Nc4ccc(C(F)(F)F)cc4)cc32)ccc1O [10720/E09],11.5
21,Cc1c(Br)ccc2c1C(=Cc1ccc(F)cc1)C(=O)N2 [10717/C05],-2.3
22,COc1cc(O)ccc1C=C1C(=O)Nc2ccc(S(=O)(=O)N3CCOCC3)cc21 [10720/F03],10.6
23,Cc1c(Br)ccc2c1C(=Cc1cc(C(C)(C)C)c(O)c(C(C)(C)C)c1)C(=O)N2 [10721/C11],13.9
24,CNS(=O)(=O)c1ccc2c(c1)C(=Cc1ccc(Cl)s1)C(=O)N2 [10721/D07],6.4
25,Cc1[nH]c(C=C2C(=O)Nc3ccc(Br)c(C)c32)c(Br)c1Br [10717/C11],4.6
26,CNS(=O)(=O)c1ccc2c(c1)C(=Cc1ncc[nH]1)C(=O)N2 [10720/D11],9.8
27,CSc1ccc(C=C2C(=O)Nc3ccc(S(=O)(=O)N4CCOCC4)cc32)s1 [10720/F07],4.6

row,SMILES,Fik Kinase %Inhibition [%]
1,COc1ccc(O)c(C=C2C(=O)Nc3ccc(S(=O)(=O)Nc4ccc(C(F)(F)F)cc4)cc32)c1 [10720/E10],-4.1
2,COc1ccc(C=C2C(=O)Nc3ccc(CCCl)cc32)cc1OC [10720/G04],2.4
3,CNS(=O)(=O)c1ccc2c(c1)C(=Cc1cc(C)c(C)s1)C(=O)N2 [10721/D04],15.2
4,O=C1Nc2c(Br)cc(Br)cc2C1=Cc1ccc(Cl)s1 [10721/A07],-4.7
5,CNS(=O)(=O)c1ccc2c(c1)C(=Cc1cc(OC)ccc1O)C(=O)N2 [10720/D10],-6.6
6,Cc1c(Br)ccc2c1C(=Cc1cc([N+](=O)[O-])cc(CCl)c1O)C(=O)N2 [10721/C06],14.4
7,COc1cc(O)ccc1C=C1C(=O)Nc2ccc(S(=O)(=O)Nc3ccc(C(F)(F)F)cc3)cc21 [10720/E03],34.3
8,O=C1Nc2ccc(S(=O)(=O)Nc3ccc(C(F)(F)F)cc3)cc2C1=Cc1ncc[nH]1 [10720/E11],9.3
9,Cc1cc(C)c(C=C2C(=O)Nc3ccc(I)cc32)[nH]1 [10721/B08],18.5
10,CNS(=O)(=O)c1ccc2c(c1)C(=Cc1cc3c([nH]1)CCCC3)C(=O)N2 [10721/D05],-25.1
11,CNS(=O)(=O)c1ccc2c(c1)C(=Cc1ccccc1O)C(=O)N2 [10720/D05],4.8
12,CCOc1cc(C=C2C(=O)Nc3ccc(S(=O)(=O)NC)cc32)ccc1O [10720/D09],5.8
13,CNS(=O)(=O)c1ccc2c(c1)C(=Cc1ccc(O)c(C(C)(C)C)c1)C(=O)N2 [10721/D09],17.6
14,Cc1c(Br)ccc2c1C(=Cc1ccc(O)c(C(C)(C)C)c1)C(=O)N2 [10721/C09],17.5
15,CNS(=O)(=O)c1ccc2c(c1)C(=Cc1nc3ccccc3n1C)C(=O)N2 [10721/D02],15.1
16,Cc1cc(C=C2C(=O)Nc3ccc(Br)c(C)c32)sc1C [10721/C04],21.8
17,CC(C)(C)c1cc(C=C2C(=O)Nc3c(Br)cc(Br)cc32)cc(C(C)(C)C)c1O [10721/A11],4.8
18,Cc1c(Br)ccc2c1C(=Cc1cc(Br)c(O)c(C(C)(C)C)c1)C(=O)N2 [10721/C10],21.1
19,CC(C)(C)c1cc(C=C2C(=O)Nc3ccc(I)cc32)cc(Br)c1O [10721/B10],20.9
20,CNS(=O)(=O)c1ccc2c(c1)C(=Cc1cc([N+](=O)[O-])cc(CCl)c1O)C(=O)N2 [10721/D06],1.6
21,O=C1Nc2c(Br)cc(Br)cc2C1=Cc1cc([N+](=O)[O-])cc(CCl)c1O [10721/A06],6.4
22,CNS(=O)(=O)c1ccc2c(c1)C(=Cc1ccc(SC)s1)C(=O)N2 [10720/D07],11.8
23,Cc1cc(C)c(C=C2C(=O)Nc3ccc(Br)c(C)c32)[nH]1 [10721/C08],55.8
24,Cc1cc(C=C2C(=O)Nc3c(Br)cc(Br)cc32)sc1C [10721/A04],6.5
25,COc1cccc(O)c1C=C1C(=O)Nc2ccc(Br)c(C)c21 [10717/C10],-8.0
26,COc1ccc(O)c(C=C2C(=O)Nc3ccc(S(=O)(=O)N4CCOCC4)cc32)c1 [10720/F10],-2.6
